US20230053540A1, “TREATMENT OF LIVER INJURY” (Massachusetts Institute of Technology, priority 2019, published 2023)

Tested on: hepatocytes
Assay: Seq-Well scRNA-Seq of hepatocytes after APAP overdose (signature scores, DEG vs untreated)
Format: in vivo, mouse
Conditions: A6 vs UT

CC(=O)Nc1ccc(O)cc1 [APAP, acetaminophen]
Med13 A6logFC: 0.2949 | Med13 avg_logFC: 0.2949 | Med13 pct.1: 0.325 | Megf9 A6logFC: 0.2769 | Megf9 avg_logFC: 0.2769 | Megf9 pct.1: 0.289 | Mettl7b avg_logFC: −0.4527 | Mettl7b pct.1: 0.647 | Mettl20 avg_logFC: −0.3314 | Mettl20 pct.1: 0.119 | Mfsd2a avg_logFC: 0.6661 | Mgea5 A6logFC: 0.3263 | Mgea5 avg_logFC: 0.3263 | Mgea5 pct.1: 0.413 | Mgst1 avg_logFC: −1.06 | Minos1 avg_logFC: −0.4555 | Minos1 pct.1: 0.332 | Mlycd avg_logFC: −0.2909 | Mlycd pct.1: 0.329 | Mmp8 avg_logFC: 0.359 | Mmp14 avg_logFC: 0.2889 | Mmp14 pct.1: 0.253 | Mpc2 avg_logFC: −0.4828 | Mpc2 pct.1: 0.599 | Mpeg1 avg_logFC: 0.4935 | Mpeg1 pct.1: 0.263 | Mrap avg_logFC: 0.8841 | Mrp63 avg_logFC: −0.4422 | Mrp63 pct.1: 0.277 | Mrpl11 A6logFC: −0.2685 | Mrpl15 A6logFC: −0.2912 | Mrpl20 A6logFC: −0.3093 | Mrpl20 avg_logFC: −0.3093 | Mrpl20 pct.1: 0.301 | Mrpl28 A6logFC: −0.2699 | Mrpl28 avg_logFC: −0.2699 | Mrpl28 pct.1: 0.229 | Mrpl33 A6logFC: −0.2654 | Mrpl34 A6logFC: −0.2838 | Mrpl41 A6logFC: −0.2674 | Mrpl42 A6logFC: −0.2845 | Mrps12 A6logFC: −0.2504 | Mrps12 avg_logFC: −0.2504 | Mrps12 pct.1: 0.193 | Mrps24 avg_logFC: −0.3904 | Mrps24 pct.1: 0.31 | Msrb1 avg_logFC: −0.599 | Mt1 avg_logFC: 2.388 | Mt2 avg_logFC: 2.063 | Mthfd2 avg_logFC: 0.2624 | Mug2 avg_logFC: 0.3683 | Mug2 pct.1: 0.776 | Mup3 avg_logFC: −0.7035 | Mup4 avg_logFC: −0.9953 | Mup5 avg_logFC: −1.237 | Mup6 avg_logFC: −1.872 | Mup7 avg_logFC: −0.9414 | Mup8 avg_logFC: −0.7526 | Mup8 pct.1: 0.098 | Mup9 avg_logFC: −2.004 | Mup11 avg_logFC: −3.214 | Mup12 avg_logFC: −1.27 | Mup15 avg_logFC: −1.316 | Mup16 avg_logFC: −1.602 | Mup17 avg_logFC: −2.354 | Mup18 avg_logFC: −1.628 | Mup19 avg_logFC: −2.396 | Mup21 avg_logFC: −0.8272 | Mvd A6logFC: −0.2704 | Mxd1 A6logFC: 0.2978 | Mybbp1a avg_logFC: 0.4312 | Mybbp1a pct.1: 0.396 | Myeov2 A6logFC: −0.3052 | Myeov2 avg_logFC: −0.3052 | Myeov2 pct.1: 0.303 | Myh9 avg_logFC: 1.16 | Myl12a avg_logFC: 0.3908 | Myl12a pct.1: 0.461 | Myo1b A6logFC: 0.2624 | Myo1e avg_logFC: 0.6143 | Naa50 A6logFC: 0.2657 | Naa50 avg_logFC: 0.2657 | Naa50 pct.1: 0.444 | Naprt1 A6logFC: −0.3381 | Nars avg_logFC: 0.4378 | Nars pct.1: 0.606 | Ncl avg_logFC: 0.4845 | Ncl pct.1: 0.69 | Ndufa2 avg_logFC: −0.3965 | Ndufa2 pct.1: 0.492 | Ndufa3 avg_logFC: −0.4116 | Ndufa3 pct.1: 0.344 | Ndufa4 avg_logFC: −0.6831 | Ndufa5 A6logFC: −0.252 | Ndufa5 avg_logFC: −0.252 | Ndufa5 pct.1: 0.418 | Ndufa6 avg_logFC: −0.6136 | Ndufa7 avg_logFC: −0.5559 | Ndufa7 pct.1: 0.406 | Ndufa13 avg_logFC: −0.4388 | Ndufa13 pct.1: 0.549 | Ndufb3 A6logFC: −0.3272 | Ndufb6 avg_logFC: −0.5077 | Ndufb6 pct.1: 0.475 | Ndufb9 avg_logFC: −0.5038 | Ndufb9 pct.1: 0.661 | Ndufb10 A6logFC: −0.3004 | Ndufc2 avg_logFC: −0.4253 | Ndufc2 pct.1: 0.36 | Ndufs4 A6logFC: −0.3132 | Ndufs6 avg_logFC: −0.5379 | Ndufs6 pct.1: 0.482 | Ndufv2 A6logFC: −0.3276 | Ndufv2 avg_logFC: −0.3276 | Ndufv2 pct.1: 0.461 | Neat1 avg_logFC: 0.6374 | Neat1 pct.1: 0.31 | Nek7 A6logFC: 0.2911 | Nek7 avg_logFC: 0.2911 | Nek7 pct.1: 0.394 | Net1 A6logFC: 0.3479 | Nid1 avg_logFC: 0.3426 | Nit2 avg_logFC: −0.4859 | Nit2 pct.1: 0.301 | Nolc1 avg_logFC: 0.4722 | Nolc1 pct.1: 0.363 | Nop56 avg_logFC: 0.2657 | Nop56 pct.1: 0.282 | Nop58 avg_logFC: 0.6634 | Nploc4 A6logFC: 0.2918 | Nploc4 avg_logFC: 0.2918 | Nploc4 pct.1: 0.351 | Nqo2 A6logFC: −0.2678 | Nqo2 avg_logFC: −0.2678 | Nqo2 pct.1: 0.317 | Nr0b2 avg_logFC: −0.293 | Nr0b2 pct.1: 0.086 | Nr1i3 avg_logFC: −0.4127 | Nr1i3 pct.1: 0.165 | Nr2f6 avg_logFC: −0.3754 | Nr2f6 pct.1: 0.234 | Nrip1 avg_logFC: 0.2729 | Nrip1 pct.1: 0.246 | Nucks1 A6logFC: 0.3558 | Nudt4 A6logFC: 0.2542 | Nudt7 avg_logFC: −1.564 | Oaf avg_logFC: −0.7329 | Oat avg_logFC: −1.225 | PM20l1 avg_logFC: 0.3085 | PM20l1 pct.1: 0.372 | Pa2g4 A6logFC: 0.2893 | Pa2g4 avg_logFC: 0.2893 | Pa2g4 pct.1: 0.492 | Pabpc1 avg_logFC: 0.4101 | Pabpc1 pct.1: 0.697 | Pah avg_logFC: −0.5221 | Pak2 avg_logFC: 0.2815 | Pak2 pct.1: 0.308 | Papss2 A6logFC: −0.2545 | Papss2 avg_logFC: −0.2545 | Papss2 pct.1: 0.337 | Paqr9 A6logFC: −0.3323 | Park7 avg_logFC: −0.2602 | Park7 pct.1: 0.601 | Pbld1 avg_logFC: −0.4425 | Pbld1 pct.1: 0.315 | Pcbd1 avg_logFC: −0.6878 | Pck1 avg_logFC: −0.6522 | Pcm1 A6logFC: 0.2654 | Pcm1 avg_logFC: 0.2654 | Pcm1 pct.1: 0.274 | Pde3b A6logFC: −0.259 | Pde3b avg_logFC: −0.259 | Pde3b pct.1: 0.243 | Pdia4 avg_logFC: −0.2719 | Pdia4 pct.1: 0.43 | Pdia6 avg_logFC: −0.39 | Pdia6 pct.1: 0.47 | Pdzd8 A6logFC: 0.2863 | Pdzd8 avg_logFC: 0.2863 | Pdzd8 pct.1: 0.36 | Pecr avg_logFC: −0.3981 | Pecr pct.1: 0.446 | Pet100 A6logFC: −0.28 | Pfkfb2 avg_logFC: 0.29 | Pfkfb2 pct.1: 0.26 | Pgls A6logFC: −0.2747 | Pgls avg_logFC: −0.2747 | Pgls pct.1: 0.22 | Phf20l1 A6logFC: 0.3085 | Phlda1 avg_logFC: 0.5492 | Pi4k2a A6logFC: 0.3536 | Picalm avg_logFC: 0.7545 | Pigr avg_logFC: 0.3487 | Pigr pct.1: 0.947 | Pkp4 A6logFC: 0.323 | Pkp4 avg_logFC: 0.323 | Pkp4 pct.1: 0.401 | Pla2g7 avg_logFC: 0.2823 | Pla2g7 pct.1: 0.119 | Plbd2 A6logFC: 0.2649 | Plbd2 avg_logFC: 0.2649
